Experimental data published in patent US5053070A, “Pyrimidine derivatives, preparation processes thereof, herbicide containing the same, and herbicidal compositions containing the same along with other active ingredient” (Mitsui Toatsu Chemicals, Incorporated, priority 1988, dated 1991).

Assays:
Format in all cases: in vivo
rice [1] = test: Treatment of soil under submerged condition, pre-emergence (Test 4), injury; settings: 30 g ai/a granule, 30 days later
Procedure: (§1) 1/5000-are Wagner pots were filled with soil. Seeds or tubers of barnyardgrass, Monochoria vaginalis, bulrush, Sagittaria pygmaea, Cyperus seroylnus and Eleocharis kuroguwai were seeded or planted under submerged condition. Two pairs of rice seedlings (2-3 leaf stage), which had been reared in advance, were transplanted to each pot and were allowed to germinate in a green house. Each pair consisted of two rice seedlings. One day later (before emergence of weeds), each pot was treated with a granule which had been prepared by processing a predetermined amount of the test composition in accordance with a similar method to the method described in Formulation Example 9. The state of emergence of weeds and the state of injury of rice were observed 30 days later.
In the table, the degrees of damages of the test plants and the degrees of injury of rice are shown in a similar manner to Example 2.

cotton = test: Upland foliar application test (Test 3), crop injury; settings: 30 g ai/a, foliar spray at 2-3 leaves, 30th day
Procedure: (§2) Resin-made 1/10000-are pots were filled with the soil of an upland field. Redroot pigweed, common lambsquarters, foxtail meadow, johnsongrass, barnyardgrass, green foxtail, large crabgrass, soybean, peanut and cotton were separately seeded and were allowed to germinate in a green house. When each plant grew to the stage of 2-3 leaves, an emulsion formulated from a predetermined amount of each test compound in a similar manner to the method described in Formulation Example 11 was diluted with water to a predetermined dilution rate and then sprayed at an application rate equal to 5 l per are onto the foliage of each plant by means of a pressure-operated ULV (ultra low volume) sprayer. Influence to the crops and weeds were observed on the 30th day after the spray of the herbicides. The results are shown in Table 4 in which the degree of damages of each test plant and the degree of injury to each crop are shown in a similar manner to Test 2.

peanut = test: as above; settings: 30 g ai/a, foliar spray at 2-3 leaves, 30th day
Procedure: as §2

soybean = test: as above; settings: 30 g ai/a, foliar spray at 2-3 leaves, 30th day
Procedure: as §2

barnyardgrass [2] = test: Treatment of soil under submerged condition, post-emergence (Test 5); settings: 30 g ai/a granule, post-emergence (barnyardgrass two-leaf stage), 30 days later
Procedure: as §1, with “serroylnus” for “seroylnus”, “grow” for “germinate”, “When the barnyardgrass grew to two-leaf stage,” for “One day later (before emergence of weeds),”
(§3) In the table, the degrees of damages of the test plants and the degrees of injury of the rice are shown in a similar manner to Example 2.

bulrush = test: as above; settings: 30 g ai/a granule, 30 days later
Procedure: as §1, with “serroylnus” for “seroylnus”, “grow” for “germinate”, “When the barnyardgrass grew to two-leaf stage,” for “One day later (before emergence of weeds),”
as §3

Sagittaria pygmaea = test: as above; settings: 30 g ai/a granule, 30 days later
Procedure: as §1, with “serroylnus” for “seroylnus”, “grow” for “germinate”, “When the barnyardgrass grew to two-leaf stage,” for “One day later (before emergence of weeds),”
as §3

rice [3] = test: Treatment of soil under submerged condition, post-emergence (Test 5), injury; settings: 30 g ai/a granule, 30 days later
Procedure: as §1, with “serroylnus” for “seroylnus”, “grow” for “germinate”, “When the barnyardgrass grew to two-leaf stage,” for “One day later (before emergence of weeds),”
as §3

johnsongrass = test: Upland soil application test (Test 2); settings: 30 g ai/a, soil spray before emergence, 30 days later
Procedure: (§4) Resin-made 1/2500-are pots were filled with the soil of an upland field. After they were fertilized, soybean, peanut and cotton were seeded and 2-3 cm soil covering was applied. Seeds of redroot pigweed, common lambsquarters, barnyardgrass, green foxtail, large crabgrass, foxtail meadow and johnsongrass had been uniformly mixed with the soil. They were allowed to germinate in a green house. One day later (before emergence of weeds), a wettable powder prepared from a predetermined amount of each test compound in a similar manner to the method described in Formulation Example 1 was diluted with water and then sprayed evenly at an application rate equal to 10 l per are onto the surface of the soil by means of a pressure-operated ULV (ultra low volume) sprayer. Influence to the crops and weeds were observed 30 days later. The results are shown in Table 3, in which the degree of damages of each test plant and the degree of injury to each crop were determined by comparing the air-dried weights of the test plant and crop with those of the corresponding plant and crop in untreated pots and are shown in accordance with the following standard: […]

large crabgrass = test: Upland soil application test (Test 2); settings: 30 g ai/a, soil spray before emergence, 30 days later
Procedure: as §4

barnyardgrass [4] = test: Upland soil application test (Test 2); settings: 30 g ai/a, soil spray before emergence, 30 days later
Procedure: as §4

green foxtail = test: Upland soil application test (Test 2); settings: 30 g ai/a, soil spray before emergence, 30 days later
Procedure: as §4

common lambsquarters = test: Upland soil application test (Test 2); settings: 30 g ai/a, soil spray before emergence, 30 days later
Procedure: as §4

foxtail meadow = test: Upland soil application test (Test 2); settings: 30 g ai/a, soil spray before emergence, 30 days later
Procedure: as §4

redroot pigweed = test: Upland soil application test (Test 2); settings: 30 g ai/a, soil spray before emergence, 30 days later
Procedure: as §4

SMILES | Injury Rice (rice [1]) | Injury Cotton (cotton) | Injury Peanut (peanut) | Injury Soybean (soybean) | Herbicidal effects Barnyardgrass (barnyardgrass [2]) | Herbicidal effects Bulrush (bulrush) | Herbicidal effects Sagittaria Pygmaea (Sagittaria pygmaea) | Injury Rice (rice [3]) | Herbicidal effects Johnsongrass (johnsongrass) | Herbicidal effects Large crabgrass (large crabgrass) | Herbicidal effects Barnyardgrass (barnyardgrass [4]) | Herbicidal effects Green foxtail (green foxtail) | Herbicidal effects Common lambsquarters (common lambsquarters) | Herbicidal effects Foxtail meadow (foxtail meadow) | Herbicidal effects Redroot pigweed (redroot pigweed)
CON=Cc1ccccc1Oc1nc(OC)cc(OC)n1 [Compound No. 1, O-methyl--2-(4,6-dimethoxy-2-pyrimidinyloxy)benzaldoxime] | 0 (91-100 (No damages)) | 0 (91-100 (No damages)) | 0 (91-100 (No damages)) | 0 (91-100 (No damages)) | 4 (6-10 (Severe damages)) | 5 (0-5 (Death)) | 3 (11-40 (Medium damages)) | 0 (91-100 (No damages)) | 5 (0-5 (Death)) | 4 (6-10 (Severe damages)) | 5 (0-5 (Death)) | 5 (0-5 (Death)) | 4 (6-10 (Severe damages)) | 5 (0-5 (Death)) | 5 (0-5 (Death))
COC(=O)c1ccccc1Oc1nc(OC)cc(OC)n1 [A, reference compound] | 5 (0-5 (Death)) | 5 (0-5 (Death)) | 5 (0-5 (Death)) | 5 (0-5 (Death)) | 5 (0-5 (Death)) | 4 (6-10 (Severe damages)) | 4 (6-10 (Severe damages)) | 5 (0-5 (Death)) | 5 (0-5 (Death)) | 5 (0-5 (Death)) | 5 (0-5 (Death)) | 5 (0-5 (Death)) | 4 (6-10 (Severe damages)) | 5 (0-5 (Death)) | 5 (0-5 (Death))
CCc1ccc(C=CCON=Cc2ccccc2Oc2nc(OC)cc(OC)n2)cc1 [compound 37] | 0 (91-100 (No damages)) | 0 (91-100 (No damages)) | 0 (91-100 (No damages)) | 0 (91-100 (No damages)) | 5 (0-5 (Death)) | 5 (0-5 (Death)) | 4 (6-10 (Severe damages)) | 1 (71-90 (Slight damages)) | 5 (0-5 (Death)) | 5 (0-5 (Death)) | 4 (6-10 (Severe damages)) | 5 (0-5 (Death)) | 4 (6-10 (Severe damages)) | 5 (0-5 (Death)) | 4 (6-10 (Severe damages))
COc1cc(OC)nc(Oc2ccccc2C=NOCC=Cc2ccc(C)cc2)n1 [compound 36] | 0 (91-100 (No damages)) | 0 (91-100 (No damages)) | 0 (91-100 (No damages)) | 0 (91-100 (No damages)) | 5 (0-5 (Death)) | 5 (0-5 (Death)) | 4 (6-10 (Severe damages)) | 1 (71-90 (Slight damages)) | 5 (0-5 (Death)) | 5 (0-5 (Death)) | 5 (0-5 (Death)) | 5 (0-5 (Death)) | 4 (6-10 (Severe damages)) | 5 (0-5 (Death)) | 4 (6-10 (Severe damages))
COc1cc(OC)nc(Oc2ccccc2C=NOCC=Cc2ccc(F)cc2)n1 [compound 29] | 0 (91-100 (No damages)) | 0 (91-100 (No damages)) | 0 (91-100 (No damages)) | 0 (91-100 (No damages)) | 5 (0-5 (Death)) | 4 (6-10 (Severe damages)) | 4 (6-10 (Severe damages)) | 1 (71-90 (Slight damages)) | 5 (0-5 (Death)) | 5 (0-5 (Death)) | 5 (0-5 (Death)) | 4 (6-10 (Severe damages)) | 4 (6-10 (Severe damages)) | 4 (6-10 (Severe damages)) | 5 (0-5 (Death))
COc1cc(OC)nc(Oc2ccccc2C=NOCC=Cc2c(F)cccc2F)n1 [compound 33] | 0 (91-100 (No damages)) | 0 (91-100 (No damages)) | 0 (91-100 (No damages)) | 0 (91-100 (No damages)) | 5 (0-5 (Death)) | 5 (0-5 (Death)) | 4 (6-10 (Severe damages)) | 1 (71-90 (Slight damages)) | 5 (0-5 (Death)) | 5 (0-5 (Death)) | 5 (0-5 (Death)) | 5 (0-5 (Death)) | 4 (6-10 (Severe damages)) | 5 (0-5 (Death)) | 4 (6-10 (Severe damages))
